Data as given in article PMC8822347, “Sustained Control of Pyruvate Carboxylase by the Essential Second Messenger Cyclic di-AMP in Bacillus subtilis” (mBio, 2022).

Tests used:
[1] = molecular target: T1, PC; pyruvate carboxylase (PycA) (Bacillus subtilis, UniProt Q9KWU4); test: malate dehydrogenase-coupled NADH oxidation, […] nm; assay type: biochemical
T1 construct: gene pyc; full length (1148 residues), C-terminal 6xHis (pET28a, pGP3458), from E. coli Rosetta(DE3), biotinylated with BirA; tetrameric

DarB [2] = molecular target: DarB (Bacillus subtilis, UniProt O31698, L38F); details: 20 °C; 10 µM DarB-L38F in cell, 100 µM c-di-AMP in syringe
DarB [3] = molecular target: DarB (Bacillus subtilis, UniProt O31698); details: 26 µM c-di-AMP, 2.6 µM DarB, 0.26 µM PC, 25 mM KHCO3, 2.5 mM pyruvate, 0.1 mM acetyl-CoA; c-di-AMP acts on DarB, not on PC
Chain of DarB (Bacillus subtilis, UniProt O31698) (O31698 whole entry): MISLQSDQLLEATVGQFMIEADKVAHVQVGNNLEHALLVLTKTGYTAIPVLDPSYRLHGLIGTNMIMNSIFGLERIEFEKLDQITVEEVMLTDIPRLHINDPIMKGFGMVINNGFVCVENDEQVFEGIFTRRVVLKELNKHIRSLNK

purified protein = substrate: CC(=O)C(=O)O; test: purified protein; assay type: biochemical, Bacillus subtilis; details: 0.1 mM acetyl-CoA, 2 mM ATP, 25 mM KHCO3, 5 mM MgCl2, 150 mM KCl, pH 7.8, 25 °C, no DarB
[4] = molecular target: T2, PC-6×His (pyruvate carboxylase), biotinylated (B. subtilis, UniProt Q9KWU4 1-1148, biotin (naturally biotinylated or biotinylated in vitro with BirA)); test: pull-down; 2 nmol biotinylated PC-6×His or PC^CT+BCCP-6×His on 250 μl StrepTactin matrix with 15 nmol DarB, DarB^L38F or YlxR, overnight at 4°C; washed with dialysis buffer (10 mM Tris pH 7.8, 150 mM KCl, 6 mM β-mercaptoethanol, 5% glycerol); eluted with 7 mM biotin; Western blot, silver stain, mass spectrometry; also with DarB preincubated with c-di-AMP (150 nmol; less DarB bound) and with acetyl-CoA (more DarB …); details: both partners purified
T2 construct: pyruvate carboxylase (PC), encoded by pycA, Bacillus subtilis 168; wild type; domains BC, CT, BCCP; also called His-PC; PycA; source: E. coli Rosetta(DE3) (pGP3458), purified (Ni-NTA, StrepTactin); biotinylated in vitro with purified BirA; not shown: 6×His, C-terminal, kept
T2 sequence (looked up): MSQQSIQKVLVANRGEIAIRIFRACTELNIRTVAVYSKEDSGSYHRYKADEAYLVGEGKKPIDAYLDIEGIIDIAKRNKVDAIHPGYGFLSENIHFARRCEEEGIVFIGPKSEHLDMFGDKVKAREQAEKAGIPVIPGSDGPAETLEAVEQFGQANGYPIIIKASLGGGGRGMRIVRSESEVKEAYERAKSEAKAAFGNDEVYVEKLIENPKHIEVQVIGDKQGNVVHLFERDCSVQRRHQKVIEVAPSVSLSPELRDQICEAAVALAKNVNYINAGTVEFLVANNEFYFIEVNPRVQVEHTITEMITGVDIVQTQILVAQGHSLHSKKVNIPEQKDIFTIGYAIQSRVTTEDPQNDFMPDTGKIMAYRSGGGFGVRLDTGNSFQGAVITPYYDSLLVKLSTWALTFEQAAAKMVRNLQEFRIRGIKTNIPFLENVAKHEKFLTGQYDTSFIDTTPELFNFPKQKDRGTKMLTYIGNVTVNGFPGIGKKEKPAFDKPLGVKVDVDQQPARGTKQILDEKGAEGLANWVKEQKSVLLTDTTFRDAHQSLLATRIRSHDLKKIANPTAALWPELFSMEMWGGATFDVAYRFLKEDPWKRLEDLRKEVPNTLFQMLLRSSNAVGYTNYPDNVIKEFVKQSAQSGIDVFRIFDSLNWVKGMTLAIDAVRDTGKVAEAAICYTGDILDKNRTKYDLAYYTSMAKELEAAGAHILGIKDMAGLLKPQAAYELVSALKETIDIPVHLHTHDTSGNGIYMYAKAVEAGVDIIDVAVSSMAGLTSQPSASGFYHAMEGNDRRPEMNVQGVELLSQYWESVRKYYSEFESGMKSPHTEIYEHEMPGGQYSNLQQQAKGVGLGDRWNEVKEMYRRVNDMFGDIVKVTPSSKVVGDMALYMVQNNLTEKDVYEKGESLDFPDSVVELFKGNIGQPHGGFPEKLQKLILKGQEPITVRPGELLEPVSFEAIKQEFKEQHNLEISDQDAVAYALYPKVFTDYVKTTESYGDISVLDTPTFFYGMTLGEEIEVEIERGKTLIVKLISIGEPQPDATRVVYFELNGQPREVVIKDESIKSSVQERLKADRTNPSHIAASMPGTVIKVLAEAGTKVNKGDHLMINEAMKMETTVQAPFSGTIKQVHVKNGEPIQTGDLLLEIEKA

Q: With `CC(=O)SCCNC(=O)CCNC(=O)[C@H](O)C(C)(C)COP(=O)(O)OP(=O)(O)OC[C@H]1O[C@@H](n2cnc3c(N)ncnc32)[C@H](O)[C@@H]1OP(=O)(O)O` [acetyl-CoA] as the molecule, how does the “malate dehydrogenase-coupled NADH oxidation, 340 nm” value ([1]; allosteric activator, 25 mM KHCO3, 2.5 mM pyruvate, pH 7.8, 25 °C, various acetyl-CoA concentrations) read?
A: the activity of PC was strongly enhanced in the presence of acetyl-CoA

Q: With `N[C@@H](CC(=O)O)C(=O)O` [aspartate] as the molecule, how does the “malate dehydrogenase-coupled NADH oxidation, 340 nm” value ([1]; allosteric inhibitor, 16 mM aspartate with 0.1 mM acetyl-CoA, 2.5 mM pyruvate, DarB or BSA present) read?
A: DarB was no longer able to activate PC in the presence of aspartate

Q: Which results are given for `Nc1ncnc2c1ncn2[C@@H]1O[C@@H]2COP(=O)(O)O[C@H]3[C@@H](O)[C@H](n4cnc5c(N)ncnc54)O[C@@H]3COP(=O)(O)O[C@H]2[C@H]1O` [c-di-AMP]?
A: KD (DarB [2]): the mutant protein binds c-di-AMP with a similar affinity as the wild-type protein; activation by DarB inhibited to (DarB [3]): 16%

B1: PC; pyruvate carboxylase (PycA) (Bacillus subtilis subsp. subtilis str. 168) (protein)
chain: T2 sequence (looked up)
notes: full length (1148 residues), C-terminal 6xHis (pET28a, pGP3458), from E. coli Rosetta(DE3), biotinylated with BirA; tetrameric
Q: Which Km (purified protein) does the source give for B1 here?
A: 230 µM

B2: DarB^L38F, purified, SUMO tag removed (natural protein, B. subtilis)
chain: MISLQSDQLLEATVGQFMIEADKVAHVQVGNNLEHALFVLTKTGYTAIPVLDPSYRLHGLIGTNMIMNSIFGLERIEFEKLDQITVEEVMLTDIPRLHINDPIMKGFGMVINNGFVCVENDEQVFEGIFTRRVVLKELNKHIRSLNK
notes: DarB, Bacillus subtilis 168, with Leu38 changed to Phe; also called DarB mutant L38F; the mutant protein; source: E. coli Rosetta(DE3) (pGP3481), purified (Ni-NTA; SUMO tag removed with SUMO protease); not shown: 6×His, N-terminal, cleaved; SUMO, N-terminal, cleaved
Q: Does B2 bind [4]?
A: binds
